The values that follow come from article PMC8958504 (Journal of Medicinal Chemistry, 2022).

The nature of one data set: Experimental pKa. The class given is physicochemical. The protocol:
Introduction of the propargyl group in derivatives 2 was achieved by alkylation of the NH group of the oxadiazolone ring with propargyl bromide in basic media (K2CO3) and acetone. […] However, alkylation of the 3-hydroxylated derivative 3l was carried out overnight at room temperature (rt) in order to avoid possible secondary reactions through the phenolic group (experimental pKa for NH-oxadiazolone, 7.04 ± 0.02; for phenol 8.72 ± 0.02, Supporting Information 1, Table S1 and Figure S11).

A short description of data set [1]: Oxygen radical absorbance capacity (ORAC-FL) assay. Particulars: trolox = 1.0. The protocol: 2,2′-Azobis-(amidinopropane) dihydrochloride (AAPH), trolox, and fluorescein (FL) were purchased from Sigma-Aldrich. The reaction was carried out in a 75 mM phosphate buffer (pH 7.4), and the final reaction mixture was 200 μL. […] Antioxidant curves (fluorescence vs time) were first normalized to the curve of the blank corresponding to the same assay, and the area under the curve (AUC) of fluorescence decay was calculated. The net AUC corresponding to a sample was calculated by subtracting the AUC corresponding to the blank. Regression equations between the net AUC and antioxidant concentration were calculated for all the samples.

In a further data set the test system is adult mice NSCs. The data set can be described thus: Neurogenic studies in SGZ-derived neurospheres. The class given is cell-based, mouse. Conditions: 10 μM. The protocol:
Adult mice NSCs were isolated from SGZ of the dentate gyrus of the hippocampus and grown as free-floating neurospheres (NS).[72],[78] The neurogenic potential of each compound was determined using fluorescence confocal microscopy by quantifying the expression of two well-known neuronal markers: human β-III-tubulin (TuJ-1 clone) and microtubule-associated protein 2 (MAP-2). TuJ-1 is expressed in immature neurons, whereas the expression of MAP-2 indicates a consolidated mature neuronal stage.[79] Given that neurogenesis involves not only the proliferation of NSC but also the migration of newly generated cells, the greatest migration distance promoted by each compound was also measured (Figure 8).
Adult male C57BL/6 mice (3 months old) were used in order to determine neurogenesis activity. […] DAPI staining was used as a nuclear marker. Fluorescent representative images were acquired with a Nikon fluorescence microscope 90i coupled to a digital camera Qi. The microscope configuration was adjusted to produce the optimum signal-to-noise ratio. […] Quantification was undertaken using the image analySIS software (Soft Imaging System Corp., Münster, Germany) and normalized to total nuclei (DAPI-stained). The intensity of immunostaining of neurites from TuJ1-labeled cells and the number of MAP-2-positive cells were estimated from nine neurospheres per condition over three independent experiments. The outgrowth of the neurosphere cells was examined under a phase-contrast microscope and the farthest distance of cell migration was calculated from the edge of the sphere. At least 10 plated neurospheres per treatment were analyzed.

Data set [2] has as its system NRF2-ARE signaling pathway. The data set can be described thus: cells. Particulars: for EC (2-fold induction): Arec32, 24 h, read-out: NRF2 (CD, μM), concentration required to double luciferase activity, AREc32 cells, 24 h; for NRF2 (CD, μM): concentration required to double luciferase activity, AREc32 cells, 24 h. Type of data set: cell-based. The protocol:
AREc32 cells were plated in 96-well white plates (2 × 10^4 cells/well). […]. The AREc32 cells constitutively express the plasmid pGL-8xARE that implements eight copies of the EpRE sequences, followed by the luciferase reporter gene. Therefore, NRF2 induction is related to the activation of EpRE sequences, expressing luciferase at the same extent as EpRE sequences are activated. The Luciferase Assay System (Promega E1500) was used according to the provider’s protocol, and luminescence was quantified in an Orion II microplate luminometer (Berthold, Germany). Fold induction of luciferase activity was normalized to basal conditions. Data are expressed as CD values, expressing the concentration required to double the luciferase activity. CD values were calculated from dose–response curves generated from the fold induction of control conditions versus inducer concentration and fitted by nonlinear regression and data interpolated to twofold induction concentration.[68]

For a further data set, the target named is T1, hMAO-A (Homo sapiens, UniProt P21397).
T1 sequence (P21397 1-527): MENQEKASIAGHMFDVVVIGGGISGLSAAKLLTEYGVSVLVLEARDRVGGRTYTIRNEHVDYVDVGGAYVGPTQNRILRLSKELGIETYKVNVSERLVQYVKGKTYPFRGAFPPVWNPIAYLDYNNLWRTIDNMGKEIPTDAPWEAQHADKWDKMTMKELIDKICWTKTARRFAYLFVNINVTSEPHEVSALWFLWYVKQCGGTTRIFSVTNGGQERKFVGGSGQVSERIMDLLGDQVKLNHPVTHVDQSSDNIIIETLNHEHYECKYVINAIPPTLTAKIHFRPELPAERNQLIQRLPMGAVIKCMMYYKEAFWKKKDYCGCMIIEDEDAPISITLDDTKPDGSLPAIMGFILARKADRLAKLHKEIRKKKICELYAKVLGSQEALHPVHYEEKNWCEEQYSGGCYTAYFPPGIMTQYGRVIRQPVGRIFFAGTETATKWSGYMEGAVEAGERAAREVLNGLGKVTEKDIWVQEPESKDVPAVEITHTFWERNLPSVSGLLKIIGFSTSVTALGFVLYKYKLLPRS
The data set can be described thus: biochemical. Particulars: for IC50: read-out: hMAO-A (IC50), recombinant hMAO-A, p-tyramine substrate. The protocol: (§1) The hMAO-A/B inhibition of all compounds was determined using the Amplex Red MAO assay kit.
(§2) Assays were performed following the general procedure previously described.[98] […] The specific fluorescence emission was calculated after subtracting the background activity, which was determined from wells containing all components except the hMAO isoforms, which were replaced with PBS.

Another data set has as its target T2, hMAO-B (Homo sapiens, UniProt P27338).
T2 sequence (P27338 1-520): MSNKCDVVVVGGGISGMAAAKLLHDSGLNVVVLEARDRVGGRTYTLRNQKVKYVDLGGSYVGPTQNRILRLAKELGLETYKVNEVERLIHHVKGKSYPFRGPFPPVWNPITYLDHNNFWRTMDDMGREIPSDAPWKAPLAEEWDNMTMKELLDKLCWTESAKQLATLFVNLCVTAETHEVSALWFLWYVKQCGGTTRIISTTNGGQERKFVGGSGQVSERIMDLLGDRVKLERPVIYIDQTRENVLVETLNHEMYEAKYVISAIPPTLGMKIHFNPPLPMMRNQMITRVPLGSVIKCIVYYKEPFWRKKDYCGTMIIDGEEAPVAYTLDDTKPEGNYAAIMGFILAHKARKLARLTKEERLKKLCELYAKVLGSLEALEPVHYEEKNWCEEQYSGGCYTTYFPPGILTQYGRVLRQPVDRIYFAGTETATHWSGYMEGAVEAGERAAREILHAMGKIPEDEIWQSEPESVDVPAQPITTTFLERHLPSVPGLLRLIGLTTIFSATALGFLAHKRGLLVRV
The data set can be described thus: biochemical. Particulars: for IC50: read-out: hMAO-B (IC50), recombinant hMAO-B, p-tyramine substrate; for inhibition at 50 µM: read-out: hMAO-B percentage of inhibition (in brackets). The protocol:
as §1, §2

Another data set in a line: in vitro. Type of data set: in vitro ADME. Conditions: for Papp at 240 min, 100 μg mL^–1: PAMPA, pH 7.4, class from PAMPA-BBB Pe, read-out: CNS-permeability prediction; for PAMPA-BBB (Pe, 10^–6 cm s^–1): porcine brain lipid, PBS/EtOH (70:30), 240 min, 25 °C.
Data set [3] has as its system rat primary cortical neurons. The data set can be described thus: Neuroprotection against OA-induced toxicity in rat primary cortical neuronal cultures (MTT). Particulars: for neuroprotection against OA-induced toxicity: compound 1 μM, OA 10 nM.
Data set [4] deals with human neuroblastoma SH-SY5Y cell line. The data set can be described thus: Cell viability per se in SH-SY5Y cells (MTT). Conditions: 100 μM, 24 h.
Procedure: The cells from the 3rd to 12th passage were seeded at a density of 80,000 cells/well in 96-well plates and were used to assess the properties of our compounds.
After treatment, the SH-SY5Y cells, rat primary neuronal cultures, and hippocampal slices were incubated for 90 min with tetrazolium salt MTT (0.5 mg/mL) solution. This assay is based on the reduction of MTT (yellow salt) to purple insoluble formazan crystals by oxidoreductase enzymes from living cells. Thereafter, in order to solubilize the formazan crystal, the cells/slices were incubated for another 45 min in dimethyl sulfoxide (DMSO). […] The basal absorbance was set to 100%, and the results were normalized to basal conditions.
The next data set addresses T3, QR2 (Mesocricetus auratus, UniProt A0ABM2YAB8).
T3 sequence (A0ABM2YAB8 1-231): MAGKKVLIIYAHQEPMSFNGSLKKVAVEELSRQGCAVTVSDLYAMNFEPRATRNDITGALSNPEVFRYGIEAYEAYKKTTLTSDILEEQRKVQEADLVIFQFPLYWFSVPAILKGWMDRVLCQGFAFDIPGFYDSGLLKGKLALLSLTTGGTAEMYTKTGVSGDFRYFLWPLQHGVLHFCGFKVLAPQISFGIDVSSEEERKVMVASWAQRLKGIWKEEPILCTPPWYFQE
The data set can be described thus: biochemical. Particulars: for inhibition at 10 µM: read-out: QR2 percentage of inhibition (in brackets). The protocol:
The QR2 experiments were performed in membrane homogenates of hamster brains (https://www.eurofins.fr, catalog ref. 0088). […] First, radioligand displacement was measured at a fixed compound concentration (10 μM) in each receptor.

In the data set “Experimental pKa” (experimental pKa for NH-oxadiazolone), `O=c1[nH]nc(/C=C/c2cccc(O)c2)o1` [3l, 5-[(E)-2-(3-Hydroxyphenyl)ethenyl]-1,3,4-oxadiazol-2(3H)-one] registered a pKa of 7.04 ± 0.02. In the data set “Experimental pKa” (experimental pKa for phenol), the pKa was determined as 8.72 ± 0.02. Besides, in [1], the “ORAC (trolox equiv)” value was 3.8 ± 0.1 trolox equiv. In addition, in the data set with adult mice NSCs, the “TuJ-1 and MAP-2 marked cells” value is “clearly increased”; the cell migration distance entry was “extended”. Moreover, the EC (2-fold induction) in [2] was > 60 µM. Further, on hMAO-A, the IC50 is > 50 µM. The IC50 at hMAO-B was > 50 µM. Also, in the data set “in vitro”, the Papp at 240 min, 100 μg mL^–1 was < 2 ×10⁻⁶ cm/s and the “PAMPA-BBB (Pe, 10^–6 cm s^–1)” value is on record as ≤ 0.5 10^–6 cm s^–1.
For `O=c1[nH]nc(/C=C/c2ccc(O)cc2)o1` [3m, 5-[(E)-2-(4-Hydroxyphenyl)ethenyl]-1,3,4-oxadiazol-2(3H)-one], the “ORAC (trolox equiv)” value in data set [1] turned out to be 3.2 ± 0.1 trolox equiv. On hMAO-A, the half-maximal inhibitory concentration (IC50) was found to be 41.5 ± 3.4 µM. The IC50 on hMAO-B turned out to be 35.7 ± 3 µM. Moreover, in “in vitro”, the Papp at 240 min, 100 μg mL^–1 is < 2 ×10⁻⁶ cm/s and the “PAMPA-BBB (Pe, 10^–6 cm s^–1)” value is ≤ 0.7 10^–6 cm s^–1. The “neuroprotection against OA-induced toxicity” value (“neuroprotection” for short) in [3] is on record as “not able to significantly reduce neuronal death”.
For `C#CCn1nc(/C=C/c2ccccc2)oc1=O` [4a, 5-[(E)-2-Phenylethenyl]-3-(prop-2-yn-1-yl)-1,3,4-oxadiazol-2(3H)-one], the “ORAC (trolox equiv)” value in data set [1] is given as <0.1 trolox equiv. The “reduction of cell viability” value in [4] is listed as “around 30%”. Besides, in the data set on adult mice NSCs (data not shown), the “capacity to differentiate NSCs” value was “poor capacity to differentiate NSCs”. The IC50 against QR2 was > 10 µM; at hMAO-A it was > 50 µM; at hMAO-B, 9.87 ± 1.22 µM. For the same molecule, the inhibition at 10 µM at QR2 came to 44%. For the same molecule, the “NRF2 (CD, μM)” value in data set [2] turned out to be 16.9 ± 0.4 µM. The Papp at 240 min, 100 μg mL^–1 in the data set “in vitro” was > 4 ×10⁻⁶ cm/s. Also, the “PAMPA-BBB (Pe, 10^–6 cm s^–1)” value in “in vitro” is recorded as 13.6 ± 0.5 10^–6 cm s^–1. The “neuroprotection” value in data set [3] is “not able to significantly reduce neuronal death”.
As for `COc1cccc(/C=C/c2n[nH]c(=O)o2)c1` [2d, 5-[(E)-2-(3-Methoxyphenyl)ethenyl]-1,3,4-oxadiazol-2(3H)-one], the “ORAC (trolox equiv)” value in data set [1] was <0.1 trolox equiv. Further, in the data set with adult mice NSCs, the “TuJ-1 and MAP-2 marked cells” value was “clearly increased”; the cell migration distance result is “extended”. Besides, at QR2, the IC50 is ~10 µM and the inhibition at 10 µM is 76%. Besides, in data set [2], the EC (2-fold induction) was > 60 µM. Also, the IC50 on hMAO-A is > 50 µM. On hMAO-A (read-out: hMAO-A percentage of inhibition (in brackets)), the inhibition at 50 µM came out at 24%. Besides, at hMAO-B, the IC50 was > 50 µM and the inhibition at 50 µM stood at 33%. Moreover, in the data set “in vitro”, the Papp at 240 min, 100 μg mL^–1 was > 4 ×10⁻⁶ cm/s and the “PAMPA-BBB (Pe, 10^–6 cm s^–1)” value is on record as 4.6 ± 0.2 10^–6 cm s^–1.
With `C#CCNC(=O)/C=C/c1ccc(O)c(O)c1` [6o, (2E)-3-(3,4-Dihydroxyphenyl)-N-(prop-2-yn-1-yl)prop-2-enamide], the “ORAC (trolox equiv)” value in data set [1] is given as 1.9 ± 0.1 trolox equiv. In addition, the “NRF2 (CD, μM)” value in [2] is 19.2 ± 3.7 µM. Further, the IC50 at hMAO-A was found to be 47 ± 0.9 µM. Besides, at hMAO-B, the IC50 was > 50 µM and the inhibition at 50 µM came to 48%. Also, in the data set “in vitro”, the Papp at 240 min, 100 μg mL^–1 was < 2 ×10⁻⁶ cm/s and the “PAMPA-BBB (Pe, 10^–6 cm s^–1)” value was ≤ 0.4 10^–6 cm s^–1. Also, the “neuroprotection” value in data set [3] is given as “slightly higher neuroprotection profile than resveratrol”.
With `C#CCn1nc(/C=C/c2cccc(OC)c2)oc1=O` [4d, 5-[(E)-2-(3-Methoxyphenyl)ethenyl]-3-(prop-2-yn-1-yl)-1,3,4-oxadiazol-2(3H)-one], in data set [1], the “ORAC (trolox equiv)” value is reported as 0.3 ± 0.06 trolox equiv. Also, in the data set with adult mice NSCs, the “TuJ-1 and MAP-2 marked cells” value is “clearly increased”; the cell migration distance result is listed as “extended”. Further, the concentration for half-maximal inhibition (IC50) against QR2 stood at 0.4 ± 0.03 µM. Also, the “NRF2 (CD, μM)” value in [2] worked out at 7.44 ± 0.34 µM. Further, on hMAO-A, the IC50 was > 50 µM. The IC50 at hMAO-B stood at 0.64 ± 0.06 µM. In “in vitro”, the Papp at 240 min, 100 μg mL^–1 is > 4 ×10⁻⁶ cm/s and the “PAMPA-BBB (Pe, 10^–6 cm s^–1)” value was 7.5 ± 0.3 10^–6 cm s^–1. The viability at 1 µM in [3] (Rattus norvegicus, Primary cortical neuron, read-out: cell viability) was 86%. In addition, the “neuroprotection” value in data set [3] was “slightly higher neuroprotection profile than resveratrol”.
